Assay results from patent US10851372B2, “Exosome packaging of nucleic acids” (University of Ottawa, priority 2015, dated 2020).

Experiments:
[1] = Effect of drugs on exosome number and miR-451 enrichment in exosomes; assay type: cell-based; settings: treatment of exosome-producing cells
Procedure: A variety of cellular factors which may affect nucleic acid construct packaging in exosomes using methods as described herein were studied. Specifically, effects of over-expression of mutant Ras, mutant Myc, wild-type Ago2, and siRNA depletion of Translin were studied. […] The effect of several drugs was also tested, such as mTOR inhibitors and lysosomal/autophagy inhibitors which are clinically used. […] Lysosomal/autophagy inhibitors tested include Bafilomycin A1, concanamycin, and NAADP-AM.

[2] = system: mouse embryonic fibroblast cells; assay: Exosomal enrichment of synthetic RNA constructs mimicking pre-miR-451 processing stages (RT-qPCR); assay type: cell-based; settings: synthetic RNA transfected, FIG. 9(E)
Procedure: Synthetic RNA constructs mimicking WT pre-miR-451 at various processing stages were tested for exosomal enrichment. Constructs were transfected into cells, and exosome enrichment was measured by RT-qPCR after exosome purification by differential centrifugation. miR-451 derived mature siRNA was normalized to levels of let-7a and miR-16 in exosomes vs. cells. Constructs tested include WT pre-mIR-451 construct following Drosha processing (A), an Ago2-cleaved version of the construct (B), and a mature 22 nt miR-451 (post exonuclease activity, having a 5′ targeting portion including a portion of the loop region) (C). For comparison, a standard 21 nt dsRNA siRNA with 3′ overhangs (D) was also tested. Exosomal enrichment results are shown in (E);
Constructs were accordingly designed which mimic WT pre-miR-451 at various processing stages, and tested for exosomal enrichment. Constructs tested are graphically depicted in FIG. 9. […]
RNAs corresponding to 42 nt pre-miR-451 with an inserted GFP siRNA, or the same construct up to the Ago2 cleavage site, or the fully mature form of miR-451 produced GFP siRNA (single-stranded 22 nt RNA), or double-stranded GFP siRNA with 2 nt 3′ overhangs were synthesized by IDT. […] Two days later exosomes were purified and levels of mature GFP siRNA in exosomes was quantified by RT-qPCR.

MDA-MB-231 = assay: Exosomal enrichment of endogenous miRNAs, RT-qPCR in exosomes vs exosome-producing cells; assay type: cell-based, human
Excerpt: Exosomes from breast epithelial cell line (MDA-MB-231) or mouse embryonic fibroblasts (MEF) were purified and multiple techniques were used to confirm the identity and purity of exosome preparations (see FIG. 1A-D). Dynamic light scattering and Nanosight particle tracking was used to ensure that exosomes purified were highly pure populations of particles with diameter of 100 nm, as expected for exosomes. […] RNA was isolated from these exosomes and the cells that produced them, and RT-qPCR was used to characterize the relative abundance of miRNAs.
(§1) Firstly, enrichment of endogenously expressed miR-451 in exosomes was compared to other endogenously expressed microRNAs (miR-16, let-7a).
(§2) Exosomes were enriched by differential centrifugation as previously described (Thery, 2006, Curr Protoc Cell Biol, Chapter 3, Unit 3 22). Briefly, MEF or MDA-MB-231 cells were cultured in media containing FBS depleted of exosomes by centrifugation at 100 000 g for 16 h (Thery, 2006, Curr Protoc Cell Biol, Chapter 3, Unit 3 22). To purify exosomes supernatant from cell cultures was centrifuged at 400 g (7 min), 2000 g (10 min) and 10 000 g (30 min, SW32 rotor). At each step the supernatant was recovered. After centrifugation at 100 000 g (1 h 10 min, SW32 rotor) the supernatant was removed and the pellet was resuspended. The pellet was washed in PBS by a final centrifugation at 100 000 g (20 min, TLA100.3 rotor). The exosome-enriched pellet was re-suspended in PBS for further analyses.
(§3) RT-qPCR was performed with the MiScript II Reverse Transcriptase system (Qiagen) and GoTaq® qPCR Master Mix (Promega A6002) using primers allowing amplification of the DNA produced in the reverse transcriptase step. Results were normalized to the ubiquitous miRNA let-7a and miR-16.

[3] = system: exosomes from multiple cell types and sources; settings: plasma, serum, mast cells, glioblastoma, B cells, cardiac progenitor cells, MSC; cited from earlier work
MSC Line = assay: Exosomal enrichment of endogenous miR-451, RT-qPCR in exosomes vs exosome-producing cells; assay type: cell-based; settings: exosome-depleted or serum-free media
Procedure: as §1, §3
(§4) RT-qPCR was performed with (Promega A6002) or Quantitect qPCR master mix (Qiagen) using primers allowing amplification of the DNA produced in the reverse transcriptase step using the following primers mir-451: […] (SEQ ID NO: 14), let-7a: […] (SEQ ID NO: 15), mir-16: […] (SEQ ID NO: 16).

MEF = assay: as above; assay type: cell-based, mouse
Procedure: as §1, §2
RT-qPCR was performed with the MiScript II Reverse Transcriptase system (Qiagen) and GoTaq® qPCR Master Mix (Promega A6002) using primers allowing amplification of the DNA produced in the reverse transcriptase step. […]
RT-qPCR was performed with (Promega A6002) or Quantitect qPCR master mix (Qiagen) using primers allowing amplification of the DNA produced in the reverse transcriptase step using the following primers mir-451: […] […]

Macrophage = assay: as above; assay type: cell-based, mouse; settings: exosome-depleted or serum-free media
Procedure: as §1, §3, §4

C8D30 = assay: as above; assay type: cell-based, mouse; settings: exosome-depleted or serum-free media
Procedure: as §1, §3, §4

MN1 = assay: as above; assay type: cell-based, mouse; settings: exosome-depleted or serum-free media
Procedure: as §1, §3, §4

JAWSII = assay: as above; assay type: cell-based, mouse; settings: exosome-depleted or serum-free media
Procedure: as §1, §3, §4

NSC34 = assay: as above; assay type: cell-based, mouse; settings: exosome-depleted or serum-free media
Procedure: as §1, §3, §4

N2A = assay: as above; assay type: cell-based, mouse; settings: exosome-depleted or serum-free media
Procedure: as §1, §3, §4

C8S = assay: as above; assay type: cell-based, mouse; settings: exosome-depleted or serum-free media
Procedure: as §1, §3, §4

BV2 = assay: as above; assay type: cell-based, mouse; settings: exosome-depleted or serum-free media
Procedure: as §1, §3, §4

C8D1A = assay: as above; assay type: cell-based, mouse; settings: exosome-depleted or serum-free media
Procedure: as §1, §3, §4

Primary MSC = assay: as above; assay type: cell-based, human; settings: exosome-depleted or serum-free media
Procedure: as §1, §3, §4

ESC = assay: as above; assay type: cell-based, human
Procedure: as §1, §3, §4

MEF cells = assay: Exosomal enrichment of miRNA expressed from transfected pre-miR-451 structural mimic plasmids (RT-qPCR); assay type: cell-based, mouse; settings: for Effect of pre-miR-451 backbone on levels of inserted miRNA in cells: MEF cells transfected with plasmids, FIG. 4
Procedure: (§5) (C) The ratio of endogenous miRNAs (let-7a, miR-106, miR-155) was measured in exosomes and exosome-producing cells (MEF, mouse embryonic fibroblasts) by RT-qPCR. y-axis is log 10. miR-451 is not endogenously expressed in these cells.
MEF cells were transfected with pre-miR-451 expressing plasmids (“technology”) containing miR-199, miR-155 or miR-106, and exosomes were purified and RT-qPCR was performed on exosomes and cells.
(§6) Plasmids expressing pre-miR-451, or pre-miR-451 structural mimics including the sequences of other miRNA, were transfected into the two cell types. Expressing miR-106 or miR-155 in the pre-miR-451 structural mimic caused them to be enriched up to 39-fold in exosomes produced by either MEF or breast cancer cells (see FIG. 3B,D). […] In MEF cells, endogenous miR-451 was undetectable in either cells or exosomes (see FIG. 3C).
(§7) Cells were transfected with plasmids using Lipofectamine 2000 according to the manufacturer's instructions. After four hours cells were washed in PBS and incubated with DMEM containing 10% FBS depleted of exosomes by ultracentrifugation according to Thery et al. (2006). After 24 h media was harvested and exosomes were purified by differential ultracentrifugation. RNA was purified from exosomes and exosome-producing cells using Trizol according to the manufacturer's instructions.
as §2, with “The exosome-enriched pellet was re-suspended in PBS for further analyses.” left out

MDA-MB-231 cells = assay: as above; assay type: cell-based, human; settings: FIG. 3B
Procedure: as §5, §6, §7
Exosomes were enriched by differential centrifugation as previously described (Thery, 2006, Curr Protoc Cell Biol, Chapter 3, Unit 3 22). […]

[4] = system: Ago2 knockout mouse embryonic fibroblasts; assay: Effect of Ago2 on exosomal enrichment of siRNA from pre-miR-451 structural mimic (qRT-PCR); assay type: cell-based; settings: compared to wild-type cells or Ago2 knockout cells rescued with wild-type or catalytically dead Ago2, FIG. 10
Procedure: In these experiments, plasmids including siRNA sequences targeting GFP or TctR integrated in a pre-miR-451 structural mimic were transfected into cells, and the levels of GFP or TetR siRNA in exosomes vs cells (vs. let-7a and miR-16 in exosomes/cells) was measured by qRT-PCR two to three days later. Enrichment of miR-451 derived sequences in exosomes was normalized to 1 for wild-type exosomes.
Testing of the effect of Ago2 on enrichment of siRNA-containing constructs in exosomes using pre-miR-451 structural mimics as described herein was also performed.
In these experiments, plasmids including siRNA sequences targeting GFP or TetR integrated in a pre-miR-451 structural mimic were transfected into cells, and the levels of GFP or TetR siRNA in exosomes vs cells (vs. let-7a and miR-16 in exosomes/cells) was measured by qRT-PCR two to three days later. Enrichment of miR-451 derived sequences in exosomes was normalized to 1 for wild-type exosomes.

CO/C1=C\C(C)=C\[C@@H](C)[C@@H](O)[C@@H](C)C/C(C)=C/C=C/[C@H](OC)[C@@H]([C@@H](C)[C@@H](O)[C@H](C)[C@@]2(O)C[C@@H](O)[C@H](C)[C@@H](C(C)C)O2)OC1=O [Bafilomycin A1]
Effect on exosome number [1]: increased exosome number

C/C=C/[C@H]1O[C@@](O)([C@@H](C)[C@H](O)[C@H](C)[C@H]2OC(=O)/C(OC)=C/C(C)=C/[C@@H](C)[C@@H](O)[C@@H](CC)[C@@H](O)[C@H](C)C/C(C)=C/C=C/[C@@H]2OC)C[C@@H](O)[C@@H]1C [concanamycin]
Effect on exosome number [1]: increased exosome number

AUGAACUUCAGGGUCAGCUUGC (listed as RNA, chemistry not fully specified) [fully mature ss, fully mature form of miR-451 produced GFP siRNA, single-stranded 22 nt RNA]
Exosomal enrichment among constructs mimicking processing stages (normalized to let-7a and miR-16, exosomes vs. cells) [2]: most strongly exosome-enriched construct | Exosomal enrichment compared with standard dsRNA siRNA with 3′ overhangs [2]: higher than dsRNA

NAADP-AM
Effect on exosome number [1]: increased exosome number

miR-451: endogenous miRNA strongly enriched in exosomes; generated from pre-miR-451 by Ago2 cleavage, Dicer-independent (AAACCGUUACCAUUACUGAGUUU; expressed or natural sequence; listed as Homo Sapiens)
Ratio of endogenous miRNA in exosomes and exosome-producing cells (in words) (MDA-MB-231; MDA-MB-231, FIG. 3A): highly enriched in exosomes | Enrichment of miR-451 in exosomes/cell (vs. miR-16 and let-7a) (MDA-MB-231; MDA, exosome-depleted or serum-free media): 5600 | Enrichment of miR-451 in exosomes compared to its levels in cells, compared to other miRNA (MDA-MB-231; endogenous miRNA, MDA-MB-231, FIG. 3A): up to 308 fold | Enrichment of miR-451 in exosomes in several studies [3]: 10-10000 fold | Enrichment of miR-451 in exosomes/cell (vs. miR-16 and let-7a) (MSC Line): 5293 | Endogenous miR-451 in cells or exosomes (MEF; MEF cells, FIG. 3C): undetectable | Enrichment of miR-451 in exosomes/cell (vs. miR-16 and let-7a) (MEF; MEF, exosome-depleted or serum-free media): 68800 | Enrichment of miR-451 in exosomes/cell (vs. miR-16 and let-7a) (Macrophage): 1280 | Enrichment of miR-451 in exosomes/cell (vs. miR-16 and let-7a) (C8D30): 22 | Enrichment of miR-451 in exosomes/cell (vs. miR-16 and let-7a) (MN1): 44 | Enrichment of miR-451 in exosomes/cell (vs. miR-16 and let-7a) (JAWSII): 23642 | Enrichment of miR-451 in exosomes/cell (vs. miR-16 and let-7a) (NSC34): 73 | Enrichment of miR-451 in exosomes/cell (vs. miR-16 and let-7a) (N2A): 4119 | Enrichment of miR-451 in exosomes/cell (vs. miR-16 and let-7a) (C8S): 383 | Enrichment of miR-451 in exosomes/cell (vs. miR-16 and let-7a) (BV2): 1887 | Enrichment of miR-451 in exosomes/cell (vs. miR-16 and let-7a) (C8D1A): 40 | Enrichment of miR-451 in exosomes/cell (vs. miR-16 and let-7a) (Primary MSC): 702 | Enrichment of miR-451 in exosomes/cell (vs. miR-16 and let-7a) (ESC; ESC, exosome-depleted or serum-free media): 3 | Enrichment of miR-451 in exosomes (in words) (ESC; human embryonic stem cells, H9 line, FIG. 7): strongly enriched

B1: miR-199 in the pre-miR-451 structural mimic: pre-miR-451 structural mimic comprising the miR-199 targeting sequence, plasmid-expressed, SEQ ID NO: 8 (nucleic acid)
chain: CUUGGGAAUGGCAAGGACAGUAGUCUGCACAUUGGUUAAUGUGCAGACUACUGUCUCUUGCUAUACCCAGA
Effect of pre-miR-451 backbone on levels of inserted miRNA in cells (MEF cells): neglible effects

B2: miR-106 in the pre-miR-451 structural mimic: pre-miR-451 structural mimic comprising the miR-106 targeting sequence, plasmid-expressed, SEQ ID NO: 7 (nucleic acid)
chain: CUUGGGAAUGGCAAGGAAAAGUGCUUACAGUGCAGGUAUGCACUGUAAGCACUUUCUCUUGCUAUACCCAGA
Effect of pre-miR-451 backbone on levels of inserted miRNA in cells (MEF cells): neglible effects | Enrichment in exosomes of miRNA inserted in the pre-miR-451 backbone (in words) (MEF cells; MEF cells, FIG. 3D): highly enriched | Enrichment in exosomes of miRNA inserted in the pre-miR-451 backbone (in words) (MDA-MB-231 cells): comparable with miR-451

B3: siRNA targeting TetR inserted in a pre-miR-451 structural mimic: pre-miR-451 structural mimic targeting TetR, SEQ ID NO: 20 (nucleic acid)
chain: CUUGGGAAUGGCAAGGUCUUGAUCUUCCAAUACGCAACCGUAUUGGAAGAUCAAGAUCUUGCUAUACCCAGA
modifications: expressed or natural sequence
Enrichment of siRNA in exosomes in Ago2 knockout cells [4]: still enriched in exosomes
